From patent US11203574B2 (BioCryst Pharmaceuticals, Inc., priority 2014, dated 2021)

What follows are molecules tested against human plasma kallikrein (Homo sapiens (Human), UniProt P03952) (assay: Plasma kallikrein activity assay (chromogenic substrate S2302)). Conditions: 2 nM kallikrein, 80 μM S2302, 30° C., pH 7.8; Ki by Cheng-Prusoff equation; values given as ranges; read-out: Ki.
human plasma kallikrein, sequence (P03952 whole entry, looked up): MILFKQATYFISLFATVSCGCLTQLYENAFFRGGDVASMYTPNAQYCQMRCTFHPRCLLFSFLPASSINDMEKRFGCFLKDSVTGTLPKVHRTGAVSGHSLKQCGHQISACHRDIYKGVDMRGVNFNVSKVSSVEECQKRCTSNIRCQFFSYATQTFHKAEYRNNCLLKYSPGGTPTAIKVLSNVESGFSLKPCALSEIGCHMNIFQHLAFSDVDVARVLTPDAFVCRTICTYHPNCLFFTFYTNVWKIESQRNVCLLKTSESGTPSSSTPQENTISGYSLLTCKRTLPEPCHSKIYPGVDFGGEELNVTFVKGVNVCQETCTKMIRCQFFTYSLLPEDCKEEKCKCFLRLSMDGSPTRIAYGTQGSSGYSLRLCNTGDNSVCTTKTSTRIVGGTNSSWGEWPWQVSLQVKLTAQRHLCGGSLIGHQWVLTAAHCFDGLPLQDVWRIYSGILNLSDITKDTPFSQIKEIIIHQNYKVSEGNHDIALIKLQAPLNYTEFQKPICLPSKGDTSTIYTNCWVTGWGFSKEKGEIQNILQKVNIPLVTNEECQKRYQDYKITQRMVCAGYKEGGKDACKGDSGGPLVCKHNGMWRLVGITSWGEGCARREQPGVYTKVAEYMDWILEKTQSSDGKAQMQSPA
human plasma kallikrein, sequence (P03952 whole entry partner, looked up): as the sequence (P03952 whole entry, looked up) above
Type: biochemical
Molecule `NCc1cccc(-n2nc(C(F)(F)F)cc2C(=O)Nc2cccc(C(OCC3CC3)c3ccccn3)c2)c1` (racemic) [43f, 1-(3-(aminomethyl)phenyl)-N-(3-((cyclopropylmethoxy)(pyridin-2-yl)methyl)-phenyl)-3-(trifluoromethyl)-1H-pyrazole-5-carboxamide] has a Ki of 0.1 to 50 nM.
For `NCc1cccc(-n2nc(C(F)(F)F)cc2C(=O)Nc2cccc(C(OCC3CC3)c3cccnc3)c2)c1` (racemic) [44c, 1-(3-(aminomethyl)phenyl)-N-(3-((cyclopropylmethoxy)(pyridin-3-yl)methyl)phenyl)-3-(trifluoromethyl)-1H-pyrazole-5-carboxamide], the Ki was 0.1 to 50 nM.
`NCc1cccc(-n2nc(C(F)(F)F)cc2C(=O)Nc2cccc(C(O)(CCC3CC3)c3ccccc3)c2)c1` (racemic) [46g, 1-(3-(aminomethyl)phenyl)-N-(3-(3-cyclopropyl-1-hydroxy-1-phenylpropyl)phenyl)-3-(trifluoromethyl)-1H-pyrazole-5-carboxamide] gave a Ki of 0.1 to 50 nM.
With `NCc1cccc(-n2nc(C(F)(F)F)cc2C(=O)Nc2cccc(C(O)(CCC3CC3)c3cccnc3)c2)c1` (racemic) [47f, 1-(3-(aminomethyl)phenyl)-N-(3-(3-cyclopropyl-1-hydroxy-1-(pyridin-3-yl)propyl)phenyl)-3-(trifluoromethyl)-1H-pyrazole-5-carboxamide] the Ki was 0.1 to 50 nM.
For `NCc1cccc(-n2nc(C(F)(F)F)cc2C(=O)Nc2cccc(C(OCC3CC3)c3ccccn3)c2)c1` (single isomer, unassigned; (+)) [43h, (+)-1-(3-(aminomethyl)phenyl)-N-(3-((cyclopropylmethoxy)(pyridin-2-yl)methyl)-phenyl)-3-(trifluoromethyl)-1H-pyrazole-5-carboxamide], the Ki was 0.1 to 50 nM.
For `NCc1cccc(-n2nc(C(F)(F)F)cc2C(=O)Nc2cccc(C(OCC3CC3)c3cccnc3)c2)c1` (single isomer, unassigned; (+)) [44d, (+)-1-(3-(aminomethyl)phenyl)-N-(3-((cyclopropylmethoxy)(pyridin-3-yl)methyl)phenyl)-3-(trifluoromethyl)-1H-pyrazole-5-carboxamide], the Ki was 0.1 to 50 nM.
With `NCc1cccc(-n2nc(C(F)(F)F)cc2C(=O)Nc2cccc(C(O)(CCC3CC3)c3ccccc3)c2)c1` (single isomer, unassigned; (+)) [46h, (+)-1-(3-(aminomethyl)phenyl)-N-(3-(3-cyclopropyl-1-hydroxy-1-phenylpropyl)phenyl)-3-(trifluoromethyl)-1H-pyrazole-5-carboxamide] the Ki was 0.1 to 50 nM.
`NCc1cccc(-n2nc(C(F)(F)F)cc2C(=O)Nc2cccc(C(O)(CCC3CC3)c3cccnc3)c2)c1` (single isomer, unassigned; (+)) [47h, (+)-1-(3-(aminomethyl)phenyl)-N-(3-(3-cyclopropyl-1-hydroxy-1-(pyridin-3-yl)propyl)phenyl)-3-(trifluoromethyl)-1H-pyrazole-5-carboxamide] gave a Ki of 0.1 to 50 nM.
With `NCc1cccc(-n2nc(C(F)(F)F)cc2C(=O)Nc2cccc(C(OCC3CC3)c3cccc(N)c3)c2)c1` (single isomer, unassigned; (+)) [64b, (+)-1-(3-(aminomethyl)phenyl)-N-(3-((3-aminophenyl)(cyclopropyl-methoxy)methyl)phenyl)-3-(trifluoromethyl)-1H-pyrazole-5-carboxamide] the Ki was 0.1 to 50 nM.
`NCc1cccc(-n2nc(C(F)(F)F)cc2C(=O)Nc2cccc(C(OCC3CC3)c3ccccc3)c2)c1` (single isomer, unassigned; (+)) [166e, (+)-1-(3-(aminomethyl)phenyl)-N-(3-((cyclopropylmethoxy)(phenyl)methyl)phenyl)-3-(trifluoromethyl)-1H-pyrazole-5-carboxamide] gave a Ki of 0.1 to 50 nM.
Work on `NCc1cccc(-n2nc(C(F)(F)F)cc2C(=O)Nc2cc(C(N)(CCC3CC3)c3ccncc3)ccc2F)c1` (single isomer, unassigned; (+)) [216d, (+)-N-(5-(1-amino-3-cyclopropyl-1-(pyridin-4-yl)propyl)-2-fluorophenyl)-1-(3-(aminomethyl)phenyl)-3-(trifluoromethyl)-1H-pyrazole-5-carboxamide] yielded a Ki of 0.1 to 50 nM.
`N#Cc1ccc(C(N)(CCC2CC2)c2cccc(NC(=O)c3cc(C(F)(F)F)nn3-c3cccc(CN)c3)c2)cc1` (single isomer, unassigned; (+)) [218c, (+)-N-(3-(1-amino-1-(4-cyanophenyl)-3-cyclopropylpropyl)phenyl)-1-(3-(aminomethyl)phenyl)-3-(trifluoromethyl)-1H-pyrazole-5-carboxamide] showed a Ki of 0.1 to 50 nM.
`N#Cc1cccc(C(N)(CCC2CC2)c2cccc(NC(=O)c3cc(C(F)(F)F)nn3-c3cccc(CN)c3)c2)c1` (single isomer, unassigned; (+)) [219c, (+)-N-(3-(1-amino-1-(3-cyanophenyl)-3-cyclopropylpropyl)phenyl)-1-(3-(aminomethyl)phenyl)-3-(trifluoromethyl)-1H-pyrazole-5-carboxamide] showed a Ki of 0.1 to 50 nM.
With `N#Cc1cccc(C(N)(CCC2CC2)c2ccc(F)c(NC(=O)c3cc(C(F)(F)F)nn3-c3cccc(CN)c3)c2)n1` (single isomer, unassigned; (+)) [220f, (+)-N-(5-(1-amino-1-(6-cyanopyridin-2-yl)-3-cyclopropylpropyl)-2-fluorophenyl)-1-(3-(aminomethyl)phenyl)-3-(trifluoromethyl)-1H-pyrazole-5-carboxamide] the Ki was 0.1 to 50 nM.
In the case of `NCc1cccc(-n2nc(C(F)(F)F)cc2C(=O)Nc2cc(C(N)(CCC3CC3)c3ccc(C(N)=O)nc3)ccc2F)c1` (single isomer, unassigned; (+)) [221i, (+)-5-(1-amino-1-(3-(1-(3-(aminomethyl)phenyl)-3-(trifluoromethyl)-1H-pyrazole-5-carboxamido)-4-fluorophenyl)-3-cyclopropylpropyl)picolinamide], the Ki is reported as 0.1 to 50 nM.
`NCc1cccc(-n2nc(C(F)(F)F)cc2C(=O)Nc2cc(C(N)(CCC3CC3)c3ccc(C(N)=O)cc3)ccc2F)c1` (single isomer, unassigned; (+)) [228a, (+)-N-(5-(1-amino-1-(4-carbamoylphenyl)-3-cyclopropylpropyl)-2-fluorophenyl)-1-(3-(aminomethyl)phenyl)-3-(trifluoromethyl)-1H-pyrazole-5-carboxamide] gave a Ki of 0.1 to 50 nM.
For `N#Cc1ccc(C(N)(CCC2CC2)c2ccc(F)c(NC(=O)c3cc(C(N)=O)nn3-c3cccc(CN)c3)c2)cc1` (single isomer, unassigned; (+)) [231d, (+)-N^5-(5-(1-amino-1-(4-cyanophenyl)-3-cyclopropylpropyl)-2-fluorophenyl)-1-(3-(aminomethyl)phenyl)-1H-pyrazole-3,5-dicarboxamide], the Ki was 0.1 to 50 nM.
For `N#Cc1cccc(C(NCC2CC2)c2ccc(F)c(NC(=O)c3cc(C(F)(F)F)nn3-c3cccc(C(=N)N)c3)c2)c1` (single isomer, unassigned; (+)) [236h, (+)-1-(3-carbamimidoylphenyl)-N-(5-((3-cyanophenyl)(cyclopropylmethylamino)methyl)-2-fluorophenyl)-3-(trifluoromethyl)-1H-pyrazole-5-carboxamide], the Ki was 0.1 to 50 nM.
`N#Cc1cccc(C(N)(CCC2CC2)c2ccc(F)c(NC(=O)c3cc(C(F)(F)F)nn3-c3cccc(C(=N)N)c3)c2)c1` (single isomer, unassigned; (+)) [237a, (+)-N-(5-(1-amino-1-(3-cyanophenyl)-3-cyclopropylpropyl)-2-fluorophenyl)-1-(3-carbamimidoylphenyl)-3-(trifluoromethyl)-1H-pyrazole-5-carboxamide] gave a Ki of 0.1 to 50 nM.
In the case of `N=C(N)c1cccc(-n2nc(C(F)(F)F)cc2C(=O)Nc2cc(C(N)(CCC3CC3)c3cccnc3)ccc2F)c1` (single isomer, unassigned; (+)) [238d, (+)-N-(5-(1-amino-3-cyclopropyl-1-(pyridin-3-yl)propyl)-2-fluorophenyl)-1-(3-carbamimidoylphenyl)-3-(trifluoromethyl)-1H-pyrazole-5-carboxamide], the Ki is reported as 0.1 to 50 nM.
`N#Cc1ccc(C(N)(CCC2CC2)c2ccc(F)c(NC(=O)c3cc(C(F)(F)F)nn3-c3cccc(C(=N)N)c3)c2)cc1` (single isomer, unassigned; (+)) [241a, (+)-N-(5-(1-amino-1-(4-cyanophenyl)-3-cyclopropylpropyl)-2-fluorophenyl)-1-(3-carbamimidoylphenyl)-3-(trifluoromethyl)-1H-pyrazole-5-carboxamide] showed a Ki of 0.1 to 50 nM.
Molecule `Nc1nccc2ccc(-n3nc(C(F)(F)F)cc3C(=O)Nc3cc(C(N)(CCC4CC4)c4ccncc4)ccc3F)cc12` (single isomer, unassigned; (+)) [253e, (+)-N-(5-(1-amino-3-cyclopropyl-1-(pyridin-4-yl)propyl)-2-fluorophenyl)-1-(1-aminoisoquinolin-7-yl)-3-(trifluoromethyl)-1H-pyrazole-5-carboxamide] has a Ki of 0.1 to 50 nM.
With `N#Cc1ccc(C(N)(CCC2CC2)c2ccc(F)c(NC(=O)c3cc(C(F)(F)F)nn3-c3ccc4ccnc(N)c4c3)c2)cc1` (single isomer, unassigned; (+)) [254c, (+)-N-(5-(1-amino-1-(4-cyanophenyl)-3-cyclopropylpropyl)-2-fluorophenyl)-1-(1-aminoisoquinolin-7-yl)-3-(trifluoromethyl)-1H-pyrazole-5-carboxamide] the Ki was 0.1 to 50 nM.
In the case of `Nc1nccc2ccc(-n3nc(C(F)(F)F)cc3C(=O)Nc3cc(C(N)(CCC4CC4)c4ccccc4)ccc3F)cc12` (single isomer, unassigned; (+)) [255a, (+)-N-(5-(1-amino-3-cyclopropyl-1-phenylpropyl)-2-fluorophenyl)-1-(1-aminoisoquinolin-7-yl)-3-(trifluoromethyl)-1H-pyrazole-5-carboxamide], the Ki is reported as 0.1 to 50 nM.
`N#Cc1cccc(C(N)(CCC2CC2)c2ccc(F)c(NC(=O)c3cc(C(F)(F)F)nn3-c3ccc4ccnc(N)c4c3)c2)c1` (single isomer, unassigned; (+)) [256a, (+)-N-(5-(1-amino-1-(3-cyanophenyl)-3-cyclopropylpropyl)-2-fluorophenyl)-1-(1-aminoisoquinolin-7-yl)-3-(trifluoromethyl)-1H-pyrazole-5-carboxamide] showed a Ki of 0.1 to 50 nM.
